The values that follow come from patent US20200393473A1, “EZETIMIBE METABOLITE AS A NON-INVASIVE BIOMARKER FOR NON-ALCOHOLIC STEATOHEPATITIS (NASH)” (ARIZONA BOARD OF REGENTS ON BEHALF OF THE UNIVERSITY OF …, priority 2018, published 2020).

For data set [1] the following is noted: normal healthy individuals, 10 mg oral dose of EZE; cited from earlier work.
Data set [2] is described as follows: Disposition of EZE and EZE-Gluc in plasma, bile and urine of control and MCD (NASH) rats, LC-MS/MS. The class given is in vivo, rat. The note with it: NASH animal model (MCD rats) vs control, oral EZE. As for the experimental part: Ezetimibe was orally administered to control and MCD rats. Blood and bile were collected and EZE and ZE-Guc were measured by LC-MS/MS. […] The solid and open arrows indicate where NASH caused an increase and decrease, respectively, in the amount of compound in the biological fluid indicated.
Ezetimibe was intravenously administered to control and MCD rats. Blood and bile were collected and EZE and EZE-Guc were measured by LC-MS/MS. […] The solid arrows indicate where NASH caused an increase in the amount of compound in the biological fluid indicated.

The nature of data set [3]: EZE-Gluc in plasma and urine in NASH compared with healthy or steatotic livers. The conditions noted are these: NASH vs healthy or steatotic livers. The class given is in vivo. As for the experimental part: Furthermore, the inventive technical features of the present invention contributed to a surprising result. A surprising and unexpected result can occur when patients are administered EZE.

As to `O=C1[C@H](CC[C@H](O)c2ccc(F)cc2)[C@@H](c2ccc(O)cc2)N1c1ccc(F)cc1` [EZE, ezetimibe], the “average peak blood concentration” value in data set [1] is recorded as 4.5 ng/mL.
`O=C(O)[C@H]1O[C@@H](Oc2ccc([C@@H]3[C@@H](CC[C@H](O)c4ccc(F)cc4)C(=O)N3c3ccc(F)cc3)cc2)[C@H](O)[C@@H](O)[C@@H]1O` [EZE-Gluc, ezetimibe-glucuronide]: in data set [2], the biliary elimination entry was “Decreased Biliary Elimination” and the plasma retention result is listed as “Increased Plasma Retention”. Moreover, the “average peak blood concentration” value in data set [1] is listed as 92 ng/mL. In addition, the “increase in plasma and urine” value in data set [3] was ≤ 100 fold.
